Test [1] concerns the target T1, recombinant human arginase 2 (Homo sapiens, UniProt P78540).
T1 sequence (P78540 23-354): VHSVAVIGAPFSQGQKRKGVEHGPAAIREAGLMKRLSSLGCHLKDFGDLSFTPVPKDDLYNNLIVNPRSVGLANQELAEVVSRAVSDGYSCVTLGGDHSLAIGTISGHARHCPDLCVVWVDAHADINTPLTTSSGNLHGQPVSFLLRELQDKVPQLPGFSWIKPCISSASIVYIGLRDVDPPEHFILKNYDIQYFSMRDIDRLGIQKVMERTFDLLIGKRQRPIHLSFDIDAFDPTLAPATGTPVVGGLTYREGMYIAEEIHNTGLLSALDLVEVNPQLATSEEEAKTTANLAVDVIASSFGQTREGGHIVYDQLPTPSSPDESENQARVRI
The test is described as follows: Arginase 2 inhibition, UPLC-MS measurement of ARG to ORN conversion in HEK293T cell lysate.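 As to all read-outs here: HEK293T lysate carrying arginase 2 at 0.1 mg/mL in 0.05 M phosphate buffer pH 7.4, inhibitor preincubated with enzyme 5 min before ARG addition started the reaction.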 As to conditions: for % of control activity at the corresponding [Inhibitor] ± SE: arginase 2; for % of control activity at the corresponding [Inhibitor] ± SE / remaining activity at 1 µM / remaining activity at 10 µM / remaining activity at 100 µM / remaining activity at 1000 µM / remaining activity at 10000 µM / remaining activity at 0.1 µM: mean of two experiments; for arginase 2 inhibitor assessment in words: at the concentrations tested; for remaining activity at 1 µM / remaining activity at 10 µM / remaining activity at 100 µM / remaining activity at 1000 µM / remaining activity at 10000 µM / remaining activity at 0.1 µM: read-out: % of control activity at the corresponding [Inhibitor] ± SE, arginase 2; for remaining activity at 10000 µM: inhibitor 10,000 µM.
Description: (§1) Following a 5-min pre-equilibration period reactions were initiated by the addition of the cell lysate solution in 0.05 M phosphate buffer to a pre-equilibrated aqueous solution of the substrate (ARG).
(§2) The samples were vortex mixed (20 sec) and cooled in an ice/water bath for 10 min prior to centrifugation (5 min, 18,000 × g, room temperature) to precipitate the proteins. An aliquot of the supernatant layer was diluted with a 7:3 mobile phase A/mobile phase B solution into glass UPLC vial inserts.
(§3) Incubation mixtures comprised of HEK293T cell lysate expressing arginase 1 (0.05 mg/mL) or arginase 2 (0.1 mg/mL), phosphate buffer (0.05 M, pH 7.4), inhibitor (0, 0.1, 1, 10, 100, 1000 or 10000 μM) and ARG (0.1, 2 or 3 mM). Following a 5-min pre-incubation of the potential inhibitor with arginase 1 or arginase 2, reactions were initiated by the addition of a pre-equilibrated solution of the substrate ARG.
Sample were diluted 3:17 in mobile phase solution prior injection.

Test [2] has as its target T2, recombinant human arginase 1 (Homo sapiens, UniProt P05089).
T2 sequence (P05089 1-322): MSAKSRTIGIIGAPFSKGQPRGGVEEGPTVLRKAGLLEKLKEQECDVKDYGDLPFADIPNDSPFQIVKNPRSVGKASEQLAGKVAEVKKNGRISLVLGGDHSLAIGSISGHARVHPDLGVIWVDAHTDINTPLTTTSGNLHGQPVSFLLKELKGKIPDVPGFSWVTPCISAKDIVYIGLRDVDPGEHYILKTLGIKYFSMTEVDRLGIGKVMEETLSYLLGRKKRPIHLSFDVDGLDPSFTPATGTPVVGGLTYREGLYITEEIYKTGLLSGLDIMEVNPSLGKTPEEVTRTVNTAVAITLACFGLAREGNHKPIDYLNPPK
Nature of the test: Arginase 1 inhibition, UPLC-MS measurement of ARG to ORN conversion in HEK293T cell lysate.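 As to all read-outs here: arginase 1–expressing HEK293T lysate at 0.05 mg/mL in pH 7.4 phosphate buffer, inhibitor preincubated 5 min with enzyme, then reaction started by adding ARG.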 As to conditions: for % of control activity at the corresponding [Inhibitor] ± SE: arginase 1; for % of control activity at the corresponding [Inhibitor] ± SE / remaining activity at 1 µM / remaining activity at 10 µM / remaining activity at 100 µM / remaining activity at 1000 µM / remaining activity at 10000 µM / remaining activity at 0.1 µM: mean of two experiments; for arginase 1 inhibitor assessment in words: at the concentrations tested, both ARG concentrations; for remaining activity at 1 µM / remaining activity at 10 µM / remaining activity at 100 µM / remaining activity at 1000 µM / remaining activity at 10000 µM / remaining activity at 0.1 µM: read-out: % of control activity at the corresponding [Inhibitor] ± SE, arginase 1; for remaining activity at 10000 µM: inhibitor 10,000 µM.
Description: as §1, §2, §3
Ki values were derived from fitting the competitive inhibition equation to experimental data. Ki data are the mean of three singlicate experiments.

Entries after “also recorded” stand apart in the source; their conditions may differ. Where two headings read alike, the source gives them in different places.

For `CN(C)C(N)=NCCC[C@H](N)C(=O)O` [ADMA, asymmetric dimethylarginine], the “% of control activity at the corresponding [Inhibitor] ± SE” value (“% of control activity … [Inhibitor] ± SE” for short) worked out at 115 ± 7% in test [1] (ARG 100 µM, inhibitor 0.1 µM); 112 ± 13% in test [1] (ARG 100 µM, inhibitor 1 µM); 109 ± 9% in test [1] (ARG 100 µM, inhibitor 10 µM); 94 ± 14% in test [1] (ARG 100 µM, inhibitor 100 µM); 104 ± 3% in test [1] (ARG 100 µM, inhibitor 1,000 µM); 80 ± 7% in test [1] (ARG 2 mM, inhibitor 0.1 µM). The “% of control activity … [Inhibitor] ± SE” value in test [1] (ARG 2 mM, inhibitor 1 µM) came out at 84 ± 12%; in test [1] (ARG 2 mM, inhibitor 10 µM) it was 92 ± 12%; in test [1] (ARG 2 mM, inhibitor 100 µM), 90 ± 14%; in test [1] (ARG 2 mM, inhibitor 1,000 µM), 87 ± 15%; in test [2] (ARG 100 µM, inhibitor 0.1 µM) it was 102 ± 9%; in test [2] (ARG 100 µM, inhibitor 1 µM), 109 ± 4%. The “% of control activity … [Inhibitor] ± SE” value in test [2] (ARG 100 µM, inhibitor 10 µM) was found to be 120 ± 12%; in test [2] (ARG 100 µM, inhibitor 100 µM), 109 ± 8%; in test [2] (ARG 100 µM, inhibitor 1,000 µM), 87 ± 1%; in test [2] (ARG 3 mM, inhibitor 0.1 µM) it was 98 ± 7%; in test [2] (ARG 3 mM, inhibitor 1 µM), 89 ± 2%; in test [2] (ARG 3 mM, inhibitor 10 µM), 90 ± 1%. The “% of control activity … [Inhibitor] ± SE” value in test [2] (ARG 3 mM, inhibitor 100 µM) is on record as 86 ± 4%; in test [2] (ARG 3 mM, inhibitor 1,000 µM) it was 69 ± 4%. The “arginase 2 inhibitor assessment in words” value in test [1] is given as “poor arginase inhibitors”. Further, the “arginase 1 inhibitor assessment in words” value in test [2] is on record as “poor arginase 1 inhibitors”.
Regarding `NCCCCN=C(N)N` [AG, agmatine], the “arginase 2 inhibitor assessment in words” value in test [1] is given as “poor inhibitors; also recorded: no significant inhibition”. Besides, the remaining activity at 1 µM in test [1] (ARG 100 µM, inhibitor 1 µM) was found to be 103 ± 4%; in test [1] (ARG 2 mM, inhibitor 1 µM) it was 104 ± 4%; in test [2] (ARG 100 µM, inhibitor 1 µM), 94 ± 7%; in test [2] (ARG 3 mM, inhibitor 1 µM) it was 84 ± 13%. The remaining activity at 10 µM turned out to be 98 ± 7% in test [1] (ARG 100 µM, inhibitor 10 µM); 96 ± 3% in test [1] (ARG 2 mM, inhibitor 10 µM); 82 ± 5% in test [2] (ARG 100 µM, inhibitor 10 µM); 100 ± 3% in test [2] (ARG 3 mM, inhibitor 10 µM). In addition, the remaining activity at 100 µM is 92 ± 6% in test [1] (ARG 100 µM, inhibitor 100 µM); 103 ± 3% in test [1] (ARG 2 mM, inhibitor 100 µM); 110 ± 24% in test [2] (ARG 100 µM, inhibitor 100 µM); 100 ± 8% in test [2] (ARG 3 mM, inhibitor 100 µM). In addition, the remaining activity at 1000 µM in test [1] (ARG 100 µM, inhibitor 1,000 µM) amounted to 78 ± 5%; in test [1] (ARG 2 mM, inhibitor 1,000 µM), 96 ± 3%; in test [2] (ARG 100 µM, inhibitor 1,000 µM), 84 ± 8%; in test [2] (ARG 3 mM, inhibitor 1,000 µM) it was 98 ± 13%. Moreover, the remaining activity at 10000 µM was 58 ± 1% in test [1] (ARG 100 µM), 87 ± 8% in test [1] (ARG 2 mM), 72 ± 3% in test [2] (ARG 100 µM) and 78 ± 7% in test [2] (ARG 3 mM). For the same molecule, the “arginase 1 inhibitor assessment in words” value in test [2] is given as “poor arginase 1 inhibitors; also recorded: no significant inhibition”.
As to `[H]/N=C(/NC)NCCC[C@H](N)C(=O)O` [L-NMMA, NG-Monomethyl-L-arginine], the remaining activity at 0.1 µM in test [1] (ARG 100 µM, inhibitor 0.1 µM) turned out to be 101 ± 1%; in test [1] (ARG 2 mM, inhibitor 0.1 µM), 96 ± 7%; in test [2] (ARG 100 µM, inhibitor 0.1 µM), 95 ± 2%; in test [2] (ARG 3 mM, inhibitor 0.1 µM) it was 106 ± 15%. The remaining activity at 1 µM in test [1] (ARG 100 µM, inhibitor 1 µM) was 103 ± 2%; in test [1] (ARG 2 mM, inhibitor 1 µM), 105 ± 4%; in test [2] (ARG 100 µM, inhibitor 1 µM), 91 ± 6%; in test [2] (ARG 3 mM, inhibitor 1 µM), 107 ± 11%. In addition, the remaining activity at 10 µM in test [1] (ARG 100 µM, inhibitor 10 µM) stood at 106 ± 1%; in test [1] (ARG 2 mM, inhibitor 10 µM), 109 ± 8%; in test [2] (ARG 100 µM, inhibitor 10 µM), 104 ± 11%; in test [2] (ARG 3 mM, inhibitor 10 µM), 95 ± 9%. The remaining activity at 100 µM in test [1] (ARG 100 µM, inhibitor 100 µM) worked out at 106 ± 9%; in test [1] (ARG 2 mM, inhibitor 100 µM), 104 ± 3%; in test [2] (ARG 100 µM, inhibitor 100 µM), 95 ± 6%; in test [2] (ARG 3 mM, inhibitor 100 µM), 94 ± 8%. The remaining activity at 1000 µM came to 111 ± 4% in test [1] (ARG 100 µM, inhibitor 1,000 µM); 118 ± 4% in test [1] (ARG 2 mM, inhibitor 1,000 µM); 116 ± 1% in test [2] (ARG 100 µM, inhibitor 1,000 µM); 97 ± 11% in test [2] (ARG 3 mM, inhibitor 1,000 µM).
For `O=C(O)[C@@H]1CCCN1` [PRO, proline], the “arginase 2 inhibitor assessment in words” value in test [1] is listed as “poor inhibitors; also recorded: no significant inhibition”. The remaining activity at 1 µM in test [1] (ARG 100 µM, inhibitor 1 µM) is 92 ± 10%; in test [1] (ARG 2 mM, inhibitor 1 µM), 98 ± 1%; in test [2] (ARG 100 µM, inhibitor 1 µM) it was 115 ± 1%; in test [2] (ARG 3 mM, inhibitor 1 µM), 100 ± 1%. The remaining activity at 10 µM stood at 99 ± 1% in test [1] (ARG 100 µM, inhibitor 10 µM); 97 ± 7% in test [1] (ARG 2 mM, inhibitor 10 µM); 110 ± 1% in test [2] (ARG 100 µM, inhibitor 10 µM); 113 ± 26% in test [2] (ARG 3 mM, inhibitor 10 µM). For the same molecule, the remaining activity at 100 µM in test [1] (ARG 100 µM, inhibitor 100 µM) worked out at 99 ± 2%; in test [1] (ARG 2 mM, inhibitor 100 µM), 96 ± 12%; in test [2] (ARG 100 µM, inhibitor 100 µM), 110 ± 6%; in test [2] (ARG 3 mM, inhibitor 100 µM), 106 ± 19%. Besides, the remaining activity at 1000 µM in test [1] (ARG 100 µM, inhibitor 1,000 µM) is 92 ± 7%; in test [1] (ARG 2 mM, inhibitor 1,000 µM), 98 ± 10%; in test [2] (ARG 100 µM, inhibitor 1,000 µM), 104 ± 3%; in test [2] (ARG 3 mM, inhibitor 1,000 µM) it was 100 ± 17%. The remaining activity at 10000 µM in test [1] (ARG 100 µM) amounted to 77 ± 16%; in test [1] (ARG 2 mM), 75 ± 8%; in test [2] (ARG 100 µM), 54 ± 7%; in test [2] (ARG 3 mM), 79 ± 20%. In test [2], the “arginase 1 inhibitor assessment in words” value is listed as “poor arginase 1 inhibitors; also recorded: no significant inhibition”.

Values taken from PMC5829263, “Homoarginine and inhibition of human arginase activity: kinetic characterization and biological relevance” (Scientific Reports, 2018).
